Measured values as given in publication PMC12304826, “Redirecting the Peptide Cleavage Causes Protease Inactivation” (Angewandte Chemie (International Ed. in English), 2025).

Legend:
human cathepsin S = target: T1, human cathepsin S (Homo sapiens, UniProt P25774); assay: Cathepsin S inhibition assay (Cbz-Phe-Arg-AMC); assay type: biochemical; settings: inhibitor not soluble at 20 µM; calculated for 20 µM from IC50 at two lower concentrations; read-out: Residual activity @ 20 µM (%) Cat S, approximated [e]
T1 construct: purchased Enzo Life Sciences, Lörrach, Germany
Method: 1. Enzyme Inhibition Assays and Kinetic Data of Inhibition of Cathepsins B, L, K and S General. Human cathepsins were assayed either fluorimetrically or spectrophotometrically as noted below. The 10 mM inhibitor solutions were prepared in DMSO. The final concentration of DMSO in all assays was 2%. Non-linear regressions were conducted with GraFit 5. Residual cathepsin activity at an inhibitor concentration of 20 µM was determined from duplicate measurements based on the product formation after 60 min. Concentration dependent measurements were performed in duplicate measurements with five different inhibitor concentrations when the residual cathepsin activity in the presence of 20 µM inhibitor was below 70% (cathepsin B) or below 50% (cathepsins cathepsins L, K, and S). Progress curves were monitored for 60 min. First-order rate constants, kobs, were determined by non-linear regression following the equation [P] = vi × (1 – exp(-kobs × t))/kobs + d, where [P] is the product concentration, vi is the initial product formation rate, kobs is the observed first-order rate constant, and d is the offset. Mean values of kobs were plotted versus corresponding inhibitor concentrations [I], and second-order rate constants of inactivation, kinac/Ki, were obtained by linear regression. The equation kobs/[I] = (kinac/Ki)/(1 + [S]/Km) was used, where [S] is the substrate concentration and Km is the Michaelis-Menten constant. Standard errors (SE) refer to the linear regression. […]
methyl-coumarin (AMC)-based fluorogenic substrate Cbz-Leu-Arg-AMC was prepared in DMSO. The final concentration of the substrate was 40 μM (= 13.3 Km). When using the spectrofluorometer, into a cuvette containing 960 μL assay buffer, inhibitor solution and DMSO in a total volume of 16 μL, and 4 […]
When using the plate reader, into a well containing 192 µL assay buffer, inhibitor solution and DMSO in a total volume of 3.2 µL and 0.8 µL of the substrate solution were added and mixed. The reaction was initiated by adding 4 µL of the cathepsin K solution.
Cathepsin S inhibition assay.[2] Human recombinant cathepsin S (Enzo Life Sciences, Lörrach, […]
nm and for emission 440 nm. The reactions were followed at 25 °C. Assay buffer was 100 mM sodium phosphate buffer pH 6.0, 100 mM NaCl, 5 mM EDTA, and 0.01% Brij 35. A stock solution of human cathepsin S of 70 μg/mL in 100 mM MES buffer, pH 6.5, 1 mM EDTA, 50 mM L-cysteine, 10 mM DTT, 0.5% Triton X-100 and 30% glycerol was diluted 1:100 with a 50 mM sodium phosphate buffer pH 6.5, 50 mM NaCl, 2 mM EDTA, 0.01% Triton X-100 and 5 mM DTT and incubated for 60 min at 37 °C. A 10 mM stock solution of the fluorogenic substrate Cbz-Phe-Arg-AMC was prepared in DMSO.
The assay was performed with a final substrate concentration of 40 µM (= 0.74 Km). When using the spectrofluorometer, into a cuvette containing 920 μL assay buffer, inhibitor solution and DMSO in a total volume of 16 μL, and 4 μL of the substrate solution were added and mixed. The reaction was initiated by adding 60 μL of the cathepsin S solution. When using the plate reader, into a well containing 188 µL assay buffer, inhibitor solution and DMSO in a total volume of 3.2 µL and 0.8 µL of the substrate solution were added and mixed. The reaction was initiated by adding […] of the cathepsin S solution.

human cathepsin B = target: T2, human cathepsin B (Homo sapiens, UniProt P07858); assay: Cathepsin B inhibition assay (chromogenic substrate Cbz-Arg-Arg-pNA); assay type: biochemical; settings: for remaining activity at 20 µM: 20 µM inhibitor, duplicate measurements, product formation after 60 min, read-out: r.a. (%), residual enzymatic activity of cathepsin B; for kinact/KI: 1 h, pH 6, five inhibitor concentrations, read-out: k inac/K i ± SE, second-order rate constant of enzyme inactivation, cathepsin B
T2 construct: purchased Calbiochem, Darmstadt, Germany
Method: To get a first insight into the interaction with human cathepsin B, the inhibition of the enzyme‐catalyzed cleavage of a chromogenic peptide substrate was examined. […] Active compounds were subjected to kinetic measurements at five different concentrations (Tables 1 and S1).
Figure 1 Cathepsin B‐catalyzed hydrolysis of 500 µM (= 0.45 K m) of Cbz‐Arg‐Arg‐p‐nitroanilide in the absence (black) or presence of increasing concentrations of carbamate 4 (from top to bottom: 0.4, 0.8, 1.2, 1.6, and 2.0 µM).
1. Enzyme Inhibition Assays and Kinetic Data of Inhibition of Cathepsins B, L, K and S General. Human cathepsins were assayed either fluorimetrically or spectrophotometrically as noted below. The 10 mM inhibitor solutions were prepared in DMSO. The final concentration of DMSO in all assays was 2%. Non-linear regressions were conducted with GraFit 5. Residual cathepsin activity at an inhibitor concentration of 20 µM was determined from duplicate measurements based on the product formation after 60 min. Concentration dependent measurements were performed in duplicate measurements with five different inhibitor concentrations when the residual cathepsin activity in the presence of 20 µM inhibitor was below 70% (cathepsin B) or below 50% (cathepsins cathepsins L, K, and S). Progress curves were monitored for 60 min. First-order rate constants, kobs, were determined by non-linear regression following the equation [P] = vi × (1 – exp(-kobs × t))/kobs + d, where [P] is the product concentration, vi is the initial product formation rate, kobs is the observed first-order rate constant, and d is the offset. Mean values of kobs were plotted versus corresponding inhibitor concentrations [I], and second-order rate constants of inactivation, kinac/Ki, were obtained by linear regression. The equation kobs/[I] = (kinac/Ki)/(1 + [S]/Km) was used, where [S] is the substrate concentration and Km is the Michaelis-Menten constant. Standard errors (SE) refer to the linear regression.
Cathepsin B inhibition assay.[1] Human isolated cathepsin B (Calbiochem, Darmstadt, Germany) was assayed spectrophotometrically on a Cary 50 or 100 Bio, Varian, at 405 nm. The reactions were followed at 37 °C. Assay buffer was 100 mM sodium phosphate buffer pH 6.0, 100 mM NaCl, 5 mM EDTA, 0.01% Brij 35. A stock solution of human cathepsin B of 1.81 mg/mL or 0.47 mg/mL in 20 mM sodium acetate buffer pH 5.0, 1 mM ethylenediaminetetraactic acid (EDTA) was diluted 1:500 with assay buffer containing 5 mM dithiothreitol (DTT) and incubated for 30 min at 37 °C. A 100 mM stock solution of the para-nitroaniline (pNA)-based chromogenic substrate Cbz-Arg-Arg-pNA was prepared in DMSO.
The final concentration of the substrate was 500 μM (= 0.45 Km). Into a cuvette containing 960 μL assay buffer, inhibitor solution and DMSO in a total volume of 15 μL, and 5 μL of the substrate solution were added and mixed. The reaction was initiated by adding 20 μL of the enzyme solution. […]

[1] = duplicates, 60 min progress curves, 500 µM Cbz-Arg-Arg-pNA, pH 6.0, 37 °C

T1 sequence (P25774 115-331): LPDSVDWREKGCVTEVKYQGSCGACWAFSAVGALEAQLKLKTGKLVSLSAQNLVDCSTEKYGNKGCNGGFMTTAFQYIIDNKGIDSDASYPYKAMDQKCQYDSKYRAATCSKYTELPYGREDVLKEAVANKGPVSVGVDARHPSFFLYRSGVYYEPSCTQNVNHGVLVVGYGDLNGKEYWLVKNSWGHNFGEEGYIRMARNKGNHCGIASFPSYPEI

| Compound | remaining activity at 20 µM (human cathepsin S) [%] | remaining activity at 20 µM (human cathepsin B) [%] | kinact/KI (human cathepsin B; [1]) [M⁻¹ s⁻¹] | k inac/K i ± SE, second-order rate constant of enzyme inactivation, cathepsin B (human cathepsin B; five inhibitor concentrations, duplicates, 60 min progress curves, 500 µM Cbz-Arg-Arg-pNA, pH 6.0, 37 °C) | fold lower K i value in comparison with 7 (human cathepsin B; 31 versus 7) | kinac (human cathepsin B; calculated from kinac/Ki values and separately obtained Ki values) [s⁻¹] | Ki (human cathepsin B; non-covalent enzyme-inhibitor complex, read-out: K i value) [nM] |
| --- | --- | --- | --- | --- | --- | --- | --- |
| O=C(NC(CC1CCCCC1)C(=O)NC(Cc1ccccc1)C(=O)O)Oc1ccc(NC(=O)C(c2ccccc2)c2ccccc2)c(Cl)c1 (stereo not shown) [Compound 30] | 42 | ≤ 2 | > 10000 | 13,800 M^−1s^−1 | – | – | – |
| O=C(NC(CC1CCCCC1)C(=O)NC(Cc1ccccc1)C(=O)O)Oc1ccc(NC(=O)C(Cc2ccccc2)Cc2ccccc2)c(Cl)c1 (stereo not shown) [Compound 31] | 46 | ≤ 2 | 23600 ± 1900 | – | more than 20 fold | 0.0104 | 441 |
